Measurements taken from patent publication US12403174B2, “Immunomodulators” (Bristol-Myers Squibb Company, priority 2020, dated 2025).
*1 amine or outer side, *2 acyl side, *3 side chain or, on linkers, in order; H or OH if unused. Where a SMILES comes first, the peptide text is derived from it. Bridges are numbered along the chain shown (N, C = ends). [ ]: non-standard residue; d: D form. The star is where a group is joined. Trp(1-CH2COOH) = N[C@@H](Cc1cn(CC(=O)O)c2ccccc12)C(=O)O; X6 = CCOC(=O)Cn1cc(C[C@H](N[*:1])C(=O)[*:2])c2ccccc21; X3 = CCOC(=O)c1ccc(Nc2c(*)c(=O)c2=O)cc1; X8 = O=C(O)c1ccc(Nc2c(*)c(=O)c2=O)cc1; X1 = O=c1c(Nc2c(Cl)cccc2Cl)c(*)c1=O; Hyp = O=C(O)[C@@H]1C[C@@H](O)CN1; NMeNle = CCCC[C@H](NC)C(=O)O; X2 = CC(C)Oc1c(*)c(=O)c1=O; X5 = CN(C)c1c(*)c(=O)c1=O; NMeA = CN[C@@H](C)C(=O)O; Orn = NCCC[C@H](N)C(=O)O; X7 = CCOc1c(*)c(=O)c1=O; Dap = NC[C@H](N)C(=O)O; X4 = COc1c(*)c(=O)c1=O

These compounds were tested against T1, PD-1/PD-L1 (Homo sapiens, UniProt Q9NZQ7) (assay: PD-1/PD-L1 Homogenous Time-Resolved Fluorescence (HTRF) binding assay). Details: PD-L1-His 10 nM, PD-1-Ig 20 nM; soluble extracellular domains.
T1 construct: TVMV protease site linker (C); made in house; host or cells: HEK293T cells
Excerpt: The ability of the compounds of formula (I) to bind to PD-L1 was investigated using a PD-1/PD-L1 Homogenous Time-Resolved Fluorescence (HTRF) binding assay.
The interaction of PD-1 and PD-L1 can be assessed using soluble, purified preparations of the extracellular domains of the two proteins. The PD-1 and PD-L1 protein extracellular domains were expressed as fusion proteins with detection tags, for PD-1, the tag was the Fc portion of Immunoglobulin (PD-1-Ig) and for PD-L1 it was the 6 histidine motif (PD-L1-His). All binding studies were performed in an HTRF assay buffer consisting of dPBS supplemented with 0.1% […] bovine serum albumin and 0.05% (v/v) Tween-20. For the h/PD-L1-His binding assay, inhibitors were pre-incubated with PD-L1-His (10 nM final) for 15 m in 4 μl of assay buffer, followed by addition of PD-1-Ig (20 nM final) in 1 μl of assay buffer and further incubation for 15 m. HTRF detection was achieved using europium crypate-labeled anti-Ig (1 nM final) and allophycocyanin (APC) labeled anti-His (20 nM final). Antibodies were diluted in HTRF detection buffer and 5 μl was dispensed on top of the binding reaction. The reaction mixture was allowed to equilibrate for 30 minutes and the resulting signal (665 nm/620 nm ratio) was obtained using an EnVision fluorometer. Additional binding assays were established between the human proteins PD-1-Ig/PD-L2-His (20 & 5 nM, respectively) and CD80-His/PD-L1-Ig (100 & 10 nM, respectively).
Recombinant Proteins: Human PD-1 (25-167) with a C-terminal human Fc domain of immunoglobulin G (Ig) epitope tag [hPD-1 (25-167)-3S-IG] and human PD-L1 (18-239) with a C-terminal His epitope tag [hPD-L1(18-239)-TVMV-His] were expressed in HEK293T cells and purified sequentially by ProteinA affinity chromatography and size exclusion chromatography. Human PD-L2-His and CD80-His was obtained through commercial sources.
Table 1 lists the IC50 values for representative examples of this disclosure measured in the PD-1/PD-L1 Homogenous Time-Resolved Fluorescence (HTRF) binding assay.

T1 sequence (Q9NZQ7 18-239): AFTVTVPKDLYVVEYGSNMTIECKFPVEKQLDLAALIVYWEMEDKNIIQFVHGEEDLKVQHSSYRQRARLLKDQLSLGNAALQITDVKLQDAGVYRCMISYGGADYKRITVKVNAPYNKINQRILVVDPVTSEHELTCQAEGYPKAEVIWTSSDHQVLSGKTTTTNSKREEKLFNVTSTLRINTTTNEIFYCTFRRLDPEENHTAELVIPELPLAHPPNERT

Compound	IC50 [nM]
CCCC[C@H]1C(=O)N(C)[C@@H](CCCC)C(=O)N[C@@H](CC(C)C)C(=O)N[C@H](C(=O)NCC(N)=O)CSCC(=O)N[C@@H](Cc2ccc(O)cc2)C(=O)N(C)[C@@H](C)C(=O)N[C@@H](CC(N)=O)C(=O)N2CCC[C@H]2C(=O)N[C@@H](CNc2c(Nc3c(Cl)cccc3Cl)c(=O)c2=O)C(=O)N[C@@H](CC(C)C)C(=O)N2C[C@H](O)C[C@H]2C(=O)N[C@@H](Cc2c[nH]c3ccccc23)C(=O)N[C@@H](CCCNc2c(Nc3c(Cl)cccc3Cl)c(=O)c2=O)C(=O)N[C@@H](Cc2cn(CC(=O)O)c3ccccc23)C(=O)N1C [Compound 1006] ({CH2CO}-Y[NMeA]NP[Dap](X1)L[Hyp]W[Orn](X1)[Trp(1-CH2COOH)][NMeNle][NMeNle]LCG-NH2; thioether N-14)	2.8
CCCC[C@H]1C(=O)N(C)[C@@H](CCCC)C(=O)N[C@@H](CC(C)C)C(=O)N[C@H](C(=O)NCC(N)=O)CSCC(=O)N[C@@H](Cc2ccc(O)cc2)C(=O)N(C)[C@@H](C)C(=O)N[C@@H](CC(N)=O)C(=O)N2CCC[C@H]2C(=O)N[C@@H](CNc2c(Nc3ccc(C(=O)OCC)cc3)c(=O)c2=O)C(=O)N[C@@H](CC(C)C)C(=O)N2C[C@H](O)C[C@H]2C(=O)N[C@@H](Cc2c[nH]c3ccccc23)C(=O)N[C@@H](CCCNc2c(Nc3ccc(C(=O)OCC)cc3)c(=O)c2=O)C(=O)N[C@@H](Cc2cn(CC(=O)O)c3ccccc23)C(=O)N1C [Compound 1005] ({CH2CO}-Y[NMeA]NP[Dap](X3)L[Hyp]W[Orn](X3)[Trp(1-CH2COOH)][NMeNle][NMeNle]LCG-NH2; thioether N-14)	1.4
CCCC[C@H]1C(=O)N(C)[C@@H](CCCC)C(=O)N[C@@H](CC(C)C)C(=O)N[C@H](C(=O)NCC(N)=O)CSCC(=O)N[C@@H](Cc2ccc(O)cc2)C(=O)N(C)[C@@H](C)C(=O)N[C@@H](CC(N)=O)C(=O)N2CCC[C@H]2C(=O)N[C@@H](CNc2c(Nc3ccc(C(=O)O)cc3)c(=O)c2=O)C(=O)N[C@@H](CC(C)C)C(=O)N2C[C@H](O)C[C@H]2C(=O)N[C@@H](Cc2c[nH]c3ccccc23)C(=O)N[C@@H](CCCNc2c(Nc3ccc(C(=O)O)cc3)c(=O)c2=O)C(=O)N[C@@H](Cc2cn(CC(=O)O)c3ccccc23)C(=O)N1C [Compound 1009] ({CH2CO}-Y[NMeA]NP[Dap](X8)L[Hyp]W[Orn](X8)[Trp(1-CH2COOH)][NMeNle][NMeNle]LCG-NH2; thioether N-14)	2.9

Second part, the compound after the results:

IC50 [nM]	Compound
16	CCCC[C@H]1C(=O)N(C)[C@@H](CCCC)C(=O)N[C@@H](CC(C)C)C(=O)N[C@H](C(=O)NCC(N)=O)CSCC(=O)N[C@@H](Cc2ccc(O)cc2)C(=O)N(C)[C@@H](C)C(=O)N[C@@H](CC(N)=O)C(=O)N2CCC[C@H]2C(=O)N[C@@H](CNc2c(OCC)c(=O)c2=O)C(=O)N[C@@H](CC(C)C)C(=O)N2C[C@H](O)C[C@H]2C(=O)N[C@@H](Cc2c[nH]c3ccccc23)C(=O)N[C@@H](CCCNc2c(OCC)c(=O)c2=O)C(=O)N[C@@H](Cc2cn(CC(=O)OCC)c3ccccc23)C(=O)N1C [Compound 1003] ({CH2CO}-Y[NMeA]NP[Dap](X7)L[Hyp]W[Orn](X7)[X6][NMeNle][NMeNle]LCG-NH2; thioether N-14)
3.6	CCCC[C@H]1C(=O)N(C)[C@@H](CCCC)C(=O)N[C@@H](CC(C)C)C(=O)N[C@H](C(=O)NCC(N)=O)CSCC(=O)N[C@@H](Cc2ccc(O)cc2)C(=O)N(C)[C@@H](C)C(=O)N[C@@H](CC(N)=O)C(=O)N2CCC[C@H]2C(=O)N[C@@H](CNc2c(OC)c(=O)c2=O)C(=O)N[C@@H](CC(C)C)C(=O)N2C[C@H](O)C[C@H]2C(=O)N[C@@H](Cc2c[nH]c3ccccc23)C(=O)N[C@@H](CCCN)C(=O)N[C@@H](Cc2cn(CC(=O)O)c3ccccc23)C(=O)N1C [Compound 1002] ({CH2CO}-Y[NMeA]NP[Dap](X4)L[Hyp]W[Orn][Trp(1-CH2COOH)][NMeNle][NMeNle]LCG-NH2; thioether N-14)
4.3	CCCC[C@H]1C(=O)N(C)[C@@H](CCCC)C(=O)N[C@@H](CC(C)C)C(=O)N[C@H](C(=O)NCC(N)=O)CSCC(=O)N[C@@H](Cc2ccc(O)cc2)C(=O)N(C)[C@@H](C)C(=O)N[C@@H](CC(N)=O)C(=O)N2CCC[C@H]2C(=O)N[C@@H](CNc2c(N(C)C)c(=O)c2=O)C(=O)N[C@@H](CC(C)C)C(=O)N2C[C@H](O)C[C@H]2C(=O)N[C@@H](Cc2c[nH]c3ccccc23)C(=O)N[C@@H](CCCNc2c(N(C)C)c(=O)c2=O)C(=O)N[C@@H](Cc2cn(CC(=O)O)c3ccccc23)C(=O)N1C [Compound 1004] ({CH2CO}-Y[NMeA]NP[Dap](X5)L[Hyp]W[Orn](X5)[Trp(1-CH2COOH)][NMeNle][NMeNle]LCG-NH2; thioether N-14)
1.6	CCCC[C@H]1C(=O)N(C)[C@@H](CCCC)C(=O)N[C@@H](CC(C)C)C(=O)N[C@H](C(=O)NCC(N)=O)CSCC(=O)N[C@@H](Cc2ccc(O)cc2)C(=O)N(C)[C@@H](C)C(=O)N[C@@H](CC(N)=O)C(=O)N2CCC[C@H]2C(=O)N[C@@H](CNc2c(OC(C)C)c(=O)c2=O)C(=O)N[C@@H](CC(C)C)C(=O)N2C[C@H](O)C[C@H]2C(=O)N[C@@H](Cc2c[nH]c3ccccc23)C(=O)N[C@@H](CCCNc2c(OC(C)C)c(=O)c2=O)C(=O)N[C@@H](Cc2cn(CC(=O)O)c3ccccc23)C(=O)N1C [Compound 1007] ({CH2CO}-Y[NMeA]NP[Dap](X2)L[Hyp]W[Orn](X2)[Trp(1-CH2COOH)][NMeNle][NMeNle]LCG-NH2; thioether N-14)
4.2	CCCC[C@H]1C(=O)N(C)[C@@H](CCCC)C(=O)N[C@@H](CC(C)C)C(=O)N[C@H](C(=O)NCC(N)=O)CSCC(=O)N[C@@H](Cc2ccc(O)cc2)C(=O)N(C)[C@@H](C)C(=O)N[C@@H](CC(N)=O)C(=O)N2CCC[C@H]2C(=O)N[C@@H](CNc2c(OC)c(=O)c2=O)C(=O)N[C@@H](CC(C)C)C(=O)N2C[C@H](O)C[C@H]2C(=O)N[C@@H](Cc2c[nH]c3ccccc23)C(=O)N[C@@H](CCCNc2c(OC)c(=O)c2=O)C(=O)N[C@@H](Cc2cn(CC(=O)O)c3ccccc23)C(=O)N1C [Compound 1001] ({CH2CO}-Y[NMeA]NP[Dap](X4)L[Hyp]W[Orn](X4)[Trp(1-CH2COOH)][NMeNle][NMeNle]LCG-NH2; thioether N-14)
